In general, Tmax refers to the time at which the peak concentration occurs. As a reminder, the Cmax is the highest concentration seen after dosing.

Where “and” joins values, the source holds several entries; their conditions need not be identical. Identical values can stand only once. Like-named read-outs stand apart in the source and are kept apart here.

Data set [1] in a line: Pharmacokinetic study in rats, testosterone plasma concentrations after oral gavage. The following applies: for Tmax / AUC0-24 h / Cmax: conscious carotid artery cannulated SD female rats; for AUC0-24 h / Cmax: normalized to 2 mg/kg equivalent testosterone dose. The method, then:
In order to assess the oral bioavailability of the compounds of the invention, pharmacokinetic studies were conducted in rats and dogs. […] The rats were then allowed to regain consciousness and fasted overnight prior to the commencement of experiments with free access to water. […] The oral formulation of Compound 2 contained 3 mg of the compound, 20 mg oleic acid and 12.5 mg Tween 80 dispersed in 1 mL PBS. Blood samples were collected from the carotid artery cannula from 5 min prior to administration up to 24 h post-dosing and centrifuged at 5000 rpm for 5 min to separate plasma. […] Plasma samples were stored at −80° C. prior to assay by HPLC-MS-MS. In this case samples were assayed for free drug (i.e. non-glyceride associated drug) and were not hydrolysed prior to assay (as was the case with the lymph samples).
FIG. 12 illustrates dose-normalized testosterone plasma concentrations following oral gavage of formulations to conscious, carotid artery cannulated female SD rats. Formulations contained 1 mg of TU, or 2 mg of compounds of the invention containing testosterone dispersed in 40 mg oleic acid, 25 mg Tween 80 and 2 ml PBS. Doses are normalized to a 2 mg/kg equivalent dose of testosterone. Data are shown as mean±SEM for all groups (n=4 or 3 for each group). The embedded figure is the plot of the dose-normalized plasma AUC0-24h (nmol×h/L) of testosterone in the form of a bar graph.

Data set [2] in a line: Pharmacokinetic study in greyhound dogs, testosterone plasma concentrations after oral administration. It counts as in vivo. The following applies: for Cmax / Tmax / AUC0-24 h: oral capsules; for Cmax / AUC0-24 h: normalized to 2 mg/kg equivalent testosterone dose. The method, then: For the dog studies, female greyhound dogs were held in a large animal research facility for at least 5 days prior to the commencement of studies. The dogs were allowed to acclimatise for at least 4 days prior to commencing the study. The dogs were fasted for 12 h up to 30 min prior to drug administration. For the fed state studies (n=4 for TU or Compound 13), dogs received 680 g of standard commercial dog food containing 5% fat min prior to drug administration. In the fasted study (n=1 for Compound 13), the dog remained fasted until after 4 h post-dose. Water was available ad libitum throughout the study for all dogs. On the study day, a 20 gauge intravenous catheter was inserted into a cephalic vein to allow blood sampling. The dogs were free to move around (not restrained) after cannulation. For the fed state studies, Andriol Testocaps (the commercial TU product) or Compound 13 was given to the dogs. Andriol Testocaps were supplied by Merck Sharp & Dohme (Australia) Pty Limited and were formulated as soft gelatin capsule containing a 12.0% (w/w) solution of TU in lauroglycol FCC/castor oil [40:60% (w/w)] with the individual capsule composition being 40 mg of TU, lauroglycol FCC, castor oil, gelatin, glycerol, and sunset yellow (E110). Compound 13 was prepared in a long-chain lipid based self-emulsifying drug delivery system (SEDDS) that consisted of 30.5% w/w soybean oil, 30.5% w/w Maisine 35-1, 31.6% w/w Cremophor EL and 7.4% w/w ethanol. Formulations were filled into hard gelatin capsules. Two capsules of Andriol Testocaps containing 80 mg TU or two capsules of Compound 13 containing a total dose of 90 mg Compound 13 dissolved in 2 g of the SEDDS formulation were administrated to the fed greyhound dog by placing the capsules as far posterior to the pharynx as possible, closing the mouth and rubbing the throat to stimulate swallowing. Subsequently 50 mL of water was administered orally via a syringe. Two capsules of Compound 13 formulation were also administrated to the fasted dogs for fasted state studies. After oral administration, blood samples (approx. 3 mL each) were taken via the cephalic vein cannula from 5 min prior to administration up to 10 hours post-dosing. The patency of the catheters was maintained by flushing with a small volume of heparinised saline (1-2 IU/mL) after each blood sample was withdrawn. Blood samples at 24 h were taken by venepuncture. Plasma was separated by centrifugation and aliquots of each plasma sample were transferred into eppendorf tubes and store at −80° C. prior to analysis by LC-MS-MS.

Data set [3] concerns porcine pancreatic lipase. Briefly: In vitro hydrolysis by porcine pancreatic lipase. It is filed as in vitro ADME. The conditions noted are these: 37° C., simulated intestinal micellar solution pH 6.5, up to 180 min. As for the experimental part:
To provide for higher throughput of experiments, unless otherwise stated, in vitro hydrolysis of TST related compounds was performed via incubation with porcine pancreatic lipase. This provides a more reproducible source of pancreatic enzymes, facilitates enhanced experimental throughput and is also a greater challenge than collected rat enzymes (since enzyme activity in rat intestinal fluid is low). Briefly, pancreatic lipase solution was prepared prior to the hydrolysis experiment by dispersion of 1 g porcine pancreatin in 5 ml of lipolysis buffer and 16.9 μl of 5M NaOH. The suspension was mixed well and centrifuged at 3500 rpm for 15 minutes at 5° C. to provide a supernatant. An amount of 1000 ml of lipolysis buffer was prepared with 0.474 g of tris-maleate (2 mM), 0.206 g of CaCl2.H2O (1.4 mM) and 8.775 g of NaCl (150 mM) adjusted with NaOH to pH 6.5. To assess the potential for prodrug hydrolysis in the intestine, 20 μl of prodrug solution (1 mg/ml dissolved in acetonitrile), 900 μl of simulated intestinal micellar solution [prepared with 0.783 g of NaTDC (3 mM) and 0.291 g of phosphatidyl choline (0.75 mM) in 500 ml lipolysis buffer] and 100 μl of enzyme solution were incubated at 37° C. 20 μl samples of the incubation solution were taken at 0, 5, 10, 15, 30, 60, 90, 120 and 180 minutes post incubation and added to 180 μl of ACN to stop lipolysis. The mixture was vortexed and centrifuged at 5000 rpm for 5 minutes to precipitate proteins prior to analysis. The supernatant was analysed by HPLC-MS for residual compound concentrations, and the potential products of compound hydrolysis were analysed.
On incubation with digestive enzymes the monoglycerides forms of the prodrugs are formed very rapidly. The stability in simulated intestinal conditions is therefore better assessed by the stability of the monoglycerides form that is generated by the initial digestion process. The monoglycerides form must remain intact to be absorbed and re-esterified in the enterocyte prior to entry into the lymphatics. […] This is consistent with the increase in lymphatic transport of Compound 18 when compared to Compound 10, and the high extent of lymphatic transport of Compound 16 in FIG. 4.

For data set [4] the following is noted: for Fold increase (compared with MPA dosed group): lymphatic transport of total MPA derivatives. As for the experimental part:
Lipid formulations containing the compound of interest were then administered to the animals, the lymph collected and drug concentrations in the lymph subsequently quantified.
Lipid-based formulations of the compounds of the invention or control compounds were prepared as previously described (Trevaskis, N. L. et al., Pharmaceutical Research, 2005, 22(11), 1863-1870). Briefly, approximately 2 mg of the compound (1 mg in the case of Compound 35 and Compound 1), 40 mg oleic acid and 25 mg Tween 80 were mixed in a glass vial until equilibrated (gentle heat (below 50° C.) may be applied for a short period).
[…] This was to eliminate the potential for the relatively high and variable levels of endogenous testosterone in male rats interfering with the quantification of exogenously dosed testosterone. Rats (240-320 g) were maintained on a standard diet and fasted overnight with free access to water prior to experiments. Anaesthetised rats were placed on a heated pad at 37° C. and cannulas were inserted into the duodenum (for formulation administration and rehydration), mesenteric lymph duct (for lymph collection) and carotid artery (for blood collection) as previously described (Edwards et al. Advanced Drug Delivery Reviews 2001, 50(1), 45-60). Post-surgery, rats were re-hydrated for 0.5 h via intraduodenal infusion of normal saline at 2.8 mL/h. The lipid formulations were infused into the duodenum at 2.8 mL/h for 2 h, after which the infusion was changed to 2.8 mL/h normal saline for the remainder of the experiment. Lymph was continuously collected for 6 to 8 h into pre-weighed Eppendorf tubes containing 10 μL of 1,000 IU/mL heparin. The collection tubes were changed hourly and lymph flow was measured gravimetrically. Aliquots of hourly lymph samples were stored at −80° C. prior to assay.
Drug concentration in lymph is expressed as total drug and includes free drug and drug associated with different glycerides. This is assayed by hydrolysis of lymph (to liberate drug from any re-esterified glycerides) prior to assessment of free drug.
FIG. 1 illustrates the cumulative lymphatic transport of total testosterone related derivatives (% of administered dose) versus time in anaesthetised mesenteric lymph duct cannulated female SD rats following intraduodenal infusion of formulations from 0 to 2 h. Each Formulation contained 2 mg of the exemplified compound or the control, testosterone undecanoate (TU), dispersed in 40 mg oleic acid, 25 mg Tween 80 and 5.6 ml PBS.

Data set [5] in a line: In vitro hydrolysis by rat digestive fluid (bile and pancreatic fluid). It is filed as in vitro ADME. The following applies: 37° C., drug-loaded lipid formulation, up to 180 min. The method, then: In vitro hydrolysis of MPA related compounds was performed via incubation with rat digestive fluid. Rat digestive fluid was collected from anesthetized rats via cannulation of the common bile-pancreatic duct immediately prior to the entry of the duct into the duodenum (i.e. below the point of entry of pancreatic secretions). This allowed simultaneous collection of bile and pancreatic fluid. The digestive fluid was collected continuously for 2 h, during which time a blank lipid formulation (prepared as described in the rat lymphatic transport studies but without the addition of drug) was infused into the duodenum at a rate of 2.8 ml/h to mimic conditions following drug administration. Bile and pancreatic fluid was maintained at 37° C. and used within 0.5 h of collection for in vitro prodrug hydrolysis experiments. The hydrolysis experiments were conducted via incubation (at 37° C.) of 0.375 mL of rat digestive fluid with 0.625 ml of the drug-loaded lipid formulations (as described in the rat lymphatic transport studies). The volume ratio of digestive fluid to formulation mimicked the flow rate of bile and pancreatic fluid (˜1.5 mL/h) and the infusion rate of the intraduodenal formulations (2.8 mL/h) during the in vivo lymphatic transport studies. Aliquots of 10 μL (samples taken at 0, 2, 5, 10, 15, 30, 60, 90, 120, 180 min) were added to 990 μL of acetonitrile:water (4:1, v/v) to stop lipolysis, vortexed for 1 min and centrifuged at 4500 g for 5 min to precipitate proteins prior to analysis. The supernatant was analysed by HPLC-MS for residual compound concentrations, and the potential products of compound hydrolysis were analysed.
On incubation with digestive enzymes the monoglycerides forms of the prodrugs are formed very rapidly. The stability in simulated intestinal conditions is therefore better assessed by the stability of the monoglycerides form that is generated by the initial digestion process. The monoglycerides form must remain intact to be absorbed and re-esterified in the enterocyte prior to entry into the lymphatics. […]

The mark [6] stands for this setting: testosterone in plasma, oral gavage.
Setting [7] is: greyhound dog, fasted state (n = 1).
[8] abbreviates: anaesthetised, mesenteric lymph-duct cannulated male SD rats, intraduodenal infusion 0-2 h, cumulative over 8 h.
[9] abbreviates: male SD rats, intraduodenal infusion.

As for `CCCCCCCCCCCCCCCC(=O)OCC(COC(=O)CCCCCCCCCCCCCCC)OC(=O)CCCCCCCCC(=O)O[C@H]1CC[C@H]2[C@@H]3CCC4=CC(=O)CC[C@]4(C)[C@H]3CC[C@]12C` [Compound 13], in data set [1] (oral administration, SD female rats), the “systemic exposure of parent testosterone (dose-normalised plasma AUC0-24h), fold greater than after Compound 41 or Compound 10” value is 10 fold. The Tmax in data set [1] (setting [6]) was determined as 0.9 ± 0.1 h; in data set [2] (setting [7]), 2.5 h; in data set [2] (greyhound dogs, fed state), 1.8 ± 0.3 h. In addition, the AUC0-24 h was determined as 0.1871 ± 0.0358 µM·h in data set [1] (setting [6]); 1.0268 µM·h in data set [2] (setting [7]); 1.1166 ± 0.0324 µM·h in data set [2] (greyhound dogs, fed state). The Cmax in data set [1] (setting [6]) was determined as 197 ± 53.4 nM; in data set [2] (conscious greyhound dogs, fed state, TU as Andriol Testocaps, Compound 13 in SEDDS), 455 ± 9.4 nM; in data set [2] (setting [7]) it was 386 nM. In data set [2] (greyhound dog, fasted state (n = 1), dose-normalized), the “AUC0-24 h fold increase compared with TU group” value is recorded as 7.3 fold. The “stability of the monoglyceride form during in vitro incubation with porcine pancreatic lipase” value in data set [3] was “not highly stable”.
With `CCCCCCCCCCCCCCCC(=O)OCC(COC(=O)CCCCCCCCCCCCCCC)OC(=O)CC(C)CC(=O)O[C@H]1CC[C@H]2[C@@H]3CCC4=CC(=O)CC[C@]4(C)[C@H]3CC[C@]12C` (stereo partly drawn) [Compound 18], the “AUC0-24 h fold increase compared with TU group” value in data set [1] (testosterone in plasma, oral gavage, SD female rats, dose-normalized) amounted to 0.3 fold. Besides, in data set [1] (setting [6]), the Tmax stood at 1.3 ± 0.2 h, the AUC0-24 h is 0.002 ± 0.0001 µM·h and the Cmax stood at 1.8 ± 0.3 nM. Further, the “Transport of total TST derivatives in lymph (% of dose)” value in data set [4] (anaesthetised, mesenteric lymph-duct cannulated female SD rats, intraduodenal infusion 0-2 h, cumulative over 8 h) was 28.0 ± 3.4 % of dose. The “lymphatic transport, fold higher than straight chain counterpart Compound 10” value in data set [4] (female SD rats, intraduodenal infusion) was “approximately 2 fold”. Also, the “Fold increase (compared with control group dosed with TU)” value in data set [4] (lymphatic transport of total TST derivatives, female SD rats, intraduodenal infusion) came to 14.9 fold. Besides, the “stability of the monoglyceride form during in vitro incubation with freshly collected rat bile and pancreatic fluid” value in data set [5] was “significantly stabilised the monoglyceride intermediates”.
Turning to `CCCCCCCCCCCCCCCC(=O)OCC(COC(=O)CCCCCCCCCCCCCCC)OC(=O)CCCCOC(=O)CC/C(C)=C/Cc1c(O)c2c(c(C)c1OC)COC2=O` [Compound 31], the “Transport of total MPA derivatives in lymph (% of dose)” value in data set [4] (setting [8]) is 8.2 % of dose and 8.2 ± 1.3 % of dose. In addition, the “Fold increase (compared with MPA dosed group)” value in data set [4] (setting [9]) is 48.9 fold. In addition, in data set [5], the “stability of the monoglyceride form during in vitro incubation with freshly collected rat bile and pancreatic fluid” value is “relatively rapidly degraded”.
For `CCCCCCCCCCCCCCCC(=O)OCC(COC(=O)CCCCCCCCCCCCCCC)OC(=O)CCCCCOC(=O)CC/C(C)=C/Cc1c(O)c2c(c(C)c1OC)COC2=O` [Compound 32], the “Transport of total MPA derivatives in lymph (% of dose)” value is 9.6 % of dose and 9.6 ± 1.4 % of dose in data set [4] (setting [8]); 18.8 % of dose in data set [4] (male SD rats, intraduodenal infusion, co-administration with 0.6 mg of JZL184 and 9 μg of orlistat). In addition, in data set [4] (setting [9]), the “Fold increase (compared with MPA dosed group)” value is listed as 57.5 fold. For the same compound, the “stability of the monoglyceride form during in vitro incubation with freshly collected rat bile and pancreatic fluid” value in data set [5] was “relatively rapidly degraded”.

These data come from patent publication US11311512B2, “Lymph directing prodrugs” (priority 2014, dated 2022).
